For 18 compounds, activation, EC50 and inhibition results are on record in patent US10793557B2, “Sting agonist compounds” (Merck Sharp & Dohme Corp., priority 2018, dated 2020).

Assay [1] relates to secretion of interferon-beta from THP1 cells. As to the kind of experiment: IFN-β secretion in THP1 cell culture (5 h). In kind it is cell-based. The conditions noted are these: Homo sapiens, THP-1, 5 h, 30 uM cGAMP = 100%; for activation at 30 µM: compound at 30 μM, read-out: % Effect at 30 μM relative to 2′3′-cGAMP; for activation at 3 µM: compound at 3 uM, read-out: % Effect relative to 2′3′-cGAMP (@ 3 uM). In short, it runs like this:
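IFN-β in supernatant measured by AlphaLISA after a 5 h, 37 °C incubation of THP1 cells with compound (10 concentrations, 30000 down to 1.5 nM, 0.3% DMSO) in low-serum RPMI. Values scaled between DMSO and 30 uM cGAMP controls; 4-parameter curve fit yields EC50.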

Assay [2] addresses T1, full-length WT STING (Homo sapiens, UniProt Q86WV6, H232R).
T1 construct: AviTag (after gg linker) (C); HRV3C cleavage site (after gs linker) (C); HIS8 (C); made in house; host or cells: Trichoplusia ni (Hi-Five) insect cells infected with baculovirus (virus generated and amplified in Sf21 cells); used as a washed membrane preparation
As to the kind of experiment: 3H-cGAMP filtration binding assay (WT STING). The conditions noted are these: for EC50: competition with tritiated cGAMP, WT STING membrane; for inhibition at 20 µM: at 20,000 nM compound. In short, it runs like this:
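EC50 values come from 4-parameter fits of remaining filter-bound tritium versus log concentration (10-point, 1:3 dilution). Insect-cell membranes carrying full-length WT STING were incubated 60 min at RT with compound and tritiated cGAMP (16 nM working stock) before filtration.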

Assay [3] addresses T2, full-length HAQ STING (Homo sapiens, UniProt Q86WV6, G230A/H232R/R293Q/R71H).
T2 construct: AviTag (after GG linker) (C); HRV3C cleavage site (after GS linker) (C); HIS8 (C); made in house; host or cells: Trichoplusia ni (Hi-Five) insect cells infected with baculovirus (virus generated and amplified in Sf21 cells); used as a washed membrane preparation
As to the kind of experiment: 3H-cGAMP filtration binding assay (HAQ STING). The conditions noted are these: competition with tritiated cGAMP, HAQ STING membrane. In short, it runs like this: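 Hi-Five (T. ni) membranes overexpressing the STING variant (2.2 ug/ml working) preincubated with compound 60 min at RT in PBS, then [3H]cGAMP (8 nM working stock) added for 60 min at RT. Bound radioactivity captured on GF/B filters and counted by scintillation; EC50 from 4-parameter fit of control-normalized activity.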

T1 sequence (Q86WV6 with tags, fused parts or gaps H232R): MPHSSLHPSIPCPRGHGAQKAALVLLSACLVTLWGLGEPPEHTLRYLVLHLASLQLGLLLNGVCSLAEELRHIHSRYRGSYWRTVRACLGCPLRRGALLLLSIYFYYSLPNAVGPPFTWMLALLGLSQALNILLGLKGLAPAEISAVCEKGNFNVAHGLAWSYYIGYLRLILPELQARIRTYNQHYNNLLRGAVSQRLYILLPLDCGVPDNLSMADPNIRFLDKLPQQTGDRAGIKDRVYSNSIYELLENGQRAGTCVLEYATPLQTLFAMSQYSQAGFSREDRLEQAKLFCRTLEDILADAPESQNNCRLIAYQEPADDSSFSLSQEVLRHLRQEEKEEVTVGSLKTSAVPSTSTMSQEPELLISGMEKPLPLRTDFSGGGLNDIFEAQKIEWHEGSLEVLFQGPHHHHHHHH
T2 sequence (Q86WV6 with tags, fused parts or gaps R71H/G230A/H232R/R293Q): as the sequence (Q86WV6 with tags, fused parts or gaps H232R) above, with R71H, G230A, R293Q counted along it

By EC50 is commonly meant the concentration that produces a half-maximal response. High values mean a less potent agent, low ones a more potent agent. Regarding `COc1cc2sc(CC[C@H](C)C(=O)O)cc2c(F)c1OCCCOc1c(OC)cc2sc(C(=O)C[C@H](C)C(=O)O)cc2c1F` [Example 101, (S)-4-(5-(3-((2-((S)-3-carboxybutyl)-4-fluoro-6-methoxybenzo[b]thiophen-5-yl)oxy)propoxy)-4-fluoro-6-methoxybenzo[b]thiophen-2-yl)-2-methyl-4-oxobutanoic acid], in assay [1], the activation at 30 µM was 85%. Moreover, the EC50 is 2 nM in assay [2] and 1 nM in assay [3].

On to `COc1cc2sc(C(=O)C[C@H](C)C(=O)O)cc2cc1OCCCCCOc1cc2cc(C(=O)C[C@H](C)C(=O)O)sc2cc1OC` [Example 102, (2S,2′S)-4,4′-(5,5′-(pentane-1,5-diylbis(oxy))bis(6-methoxybenzo[b]thiophene-5,2-diyl))bis(2-methyl-4-oxobutanoic acid)], for which the activation at 30 µM in assay [1] was 69%. The EC50 in assay [2] turned out to be 213 nM; in assay [3] it was 15 nM.

As to `COc1cc2sc(C(=O)C[C@H](C)C(=O)O)cc2cc1OCCCCCOc1c(OC)cc2sc(C(=O)C[C@H](C)C(=O)O)cc2c1F` [Example 103, (S)-4-(5-((5-((2-((S)-3-carboxybutanoyl)-4-fluoro-6-methoxybenzo[b]thiophen-5-yl)oxy)pentyl)oxy)-6-methoxybenzo[b]thiophen-2-yl)-2-methyl-4-oxobutanoic acid], the activation at 30 µM in assay [1] is 79%. Also, the 50% effective concentration (EC50) in assay [2] amounted to 371 nM; in assay [3] it was 22 nM.

Regarding `COc1cc2sc(C(=O)C[C@H](C)C(=O)O)cc2cc1OCCCCCOc1cc2sc(C(=O)C[C@H](C)C(=O)O)cc2cc1OC` [Example 104, (S)-4-(5-((5-((2-((S)-3-carboxybutanoyl)-5-methoxybenzo[b]thiophen-6-yl)oxy)pentyl)oxy)-6-methoxybenzo [b]thiophen-2-yl)-2-methyl-4-oxobutanoic acid], in assay [1], the activation at 30 µM was 35%. For the same compound, the concentration giving a half-maximal response (EC50) is 8900 nM in assay [2] and 467 nM in assay [3].

For the compound `COc1cc2sc(C(=O)C[C@H](C)C(=O)O)cc2c(F)c1CCCOc1c(OC)cc2sc(CC[C@H](C)C(=O)O)cc2c1F` [Example 105, (S)-4-(5-(3-((2-((S)-3-carboxybutyl)-4-fluoro-6-methoxybenzo[b]thiophen-5-yl)oxy)propyl)-4-fluoro-6-methoxybenzo[b]thiophen-2-yl)-2-methyl-4-oxobutanoic acid], the activation at 30 µM in assay [1] is 130%. Further, the EC50 came to 311 nM in assay [2] and 39 nM in assay [3].

Regarding `COc1cc2sc(C(=O)C[C@H](C)C(=O)O)cc2c(F)c1CCCOc1c(OC)cc2sc(C(=O)[C@@H]3CC3C(=O)O)cc2c1F` (stereo partly drawn) [Example 106, trans-2-(5-(3-(2-((S)-3-carboxybutanoyl)-4-fluoro-6-methoxybenzo[b]thiophen-5-yl)propoxy)-4-fluoro-6-methoxybenzo[b]thiophene-2-carbonyl)cyclopropane carboxylic acid], the activation at 30 µM in assay [1] was found to be 74%. The concentration for a half-maximal effect (EC50) in assay [2] was 251 nM; in assay [3], 10 nM.

With `COc1cc2sc(C(=O)C[C@H](C)C(=O)O)cc2c(F)c1CCCOc1c(OC)cc2sc(C(=O)[C@@H]3CCC3C(=O)O)cc2c1F` (stereo partly drawn) [Example 107, trans-2-(5-(3-(2-((S)-3-carboxybutanoyl)-4-fluoro-6-methoxybenzo[b]thiophen-5-yl)propoxy)-4-fluoro-6-methoxybenzo[b]thiophene-2-carbonyl)cyclobutane carboxylic acid], the activation at 30 µM in assay [1] was determined as 108%. The 50% effective concentration (EC50) in assay [2] was 2 nM; in assay [3] it was 1 nM.

As for `COc1cc2sc(C(=O)C[C@@H](C)C(=O)O)cc2cc1CCCOc1c(OC)cc2sc(C(=O)C[C@@H](C)C(=O)O)cc2c1F` [Example 108, (R)-4-(5-(3-((2-((R)-3-carboxybutanoyl)-4-fluoro-6-methoxybenzo[b]thiophen-5-yl)oxy)propyl)-6-methoxybenzo[b]thiophen-2-yl)-2-methyl-4-oxobutanoic acid], the activation at 30 µM in assay [1] is 86%. The figures for the EC50 in assay [2] and in assay [3] were 244 nM and 35 nM, respectively.

Take `COc1cc2sc(C(=O)C[C@H](C)C(=O)O)cc2cc1CCCOc1c(OC)cc2sc(C(=O)C[C@@H](C)C(=O)O)cc2c1F` [Example 109, (S)-4-(5-(3-((2-((R)-3-carboxybutanoyl)-4-fluoro-6-methoxybenzo[b]thiophen-5-yl)oxy)propyl)-6-methoxybenzo[b]thiophen-2-yl)-2-methyl-4-oxobutanoic acid]: the activation at 30 µM in assay [1] is 96%. Besides, the EC50 in assay [2] was found to be 39 nM; in assay [3] it was 10 nM.

What is called inhibition is the percentage by which the read-out fell short of the control. Higher therefore signals a response far below the control. Regarding `COc1cc2sc(C(=O)C[C@H](C)C(=O)O)cc2cc1OCCCCCCOc1cc2cc(C(=O)C[C@H](C)C(=O)O)sc2cc1OC` [Example 110, (2S,2′S)-4,4′-(5,5′-(hexane-1,6-diylbis(oxy))bis(6-methoxybenzo[b]thiophene-5,2-diyl))bis(2-methyl-4-oxobutanoic acid)], in assay [1], the activation at 30 µM is 6%. For the same compound, the inhibition at 20 µM in assay [2] came out at 15%. Besides, in assay [3], the concentration for a half-maximal effect (EC50) was 18600 nM.

Consider `COc1cc2sc(C(=O)C[C@H](C)C(=O)O)cc2cc1OCCCCCCOc1c(OC)cc2sc(C(=O)C[C@H](C)C(=O)O)cc2c1F` [Example 111, (S)-4-(5-((6-((2-((S)-3-carboxybutanoyl)-4-fluoro-6-methoxybenzo[b]thiophen-5-yl)oxy)hexyl)oxy)-6-methoxybenzo[b]thiophen-2-yl)-2-methyl-4-oxobutanoic acid], for which the activation at 3 µM in assay [1] came to 45%. This compound also gave an inhibition at 20 µM in assay [2] of 50%. The EC50 in assay [3] turned out to be 861 nM.

On to `COc1cc2cc(C(=O)C[C@H](C)C(=O)O)sc2cc1OCCCCCCOc1cc2sc(C(=O)C[C@H](C)C(=O)O)cc2cc1OC` [Example 112, (2S,2′S)-4,4′-(6,6′-(hexane-1,6-diylbis(oxy))bis(5-methoxybenzo[b]thiophene-6,2-diyl))bis(2-methyl-4-oxobutanoic acid)], for which the activation at 30 µM in assay [1] was found to be 23%. Also, the inhibition at 20 µM in assay [2] turned out to be 11%. Further, the response in assay [3] was half-maximal at 15500 nM (EC50).

Consider `COc1cc2sc(C(=O)C[C@H](C)C(=O)O)cc2cc1CCCOc1c(OC)cc2sc(C(=O)[C@@H]3CCC3C(=O)O)cc2c1F` (stereo partly drawn) [Example 113, trans-2-(5-(3-(2-((S)-3-carboxybutanoyl)-6-methoxybenzo[b]thiophen-5-yl)propoxy)-4-fluoro-6-methoxybenzo[b]thiophene-2-carbonyl)cyclobutane carboxylic acid], for which the activation at 30 µM in assay [1] worked out at 93%. Also, the 50% effective concentration (EC50) came to 23 nM in assay [2] and 2 nM in assay [3].

For `COc1cc2sc(C(=O)C[C@H](C)C(=O)O)cc2c(F)c1CCCOc1c(OC)cc2sc(CCC(C)(C)C(=O)O)cc2c1F` [Example 114, (S)-4-(5-(3-((2-(3-carboxy-3-methylbutyl)-4-fluoro-6-methoxybenzo[b]thiophen-5-yl)oxy)propyl)-4-fluoro-6-methoxybenzo[b]thiophen-2-yl)-2-methyl-4-oxobutanoic acid], the activation at 30 µM in assay [1] is 57%. In addition, the figures for the EC50 in assay [2] and in assay [3] were 264 nM and 21 nM, respectively.

In the case of `COc1cc2sc(CC[C@H](C)C(=O)O)cc2c(F)c1OCCCOc1c(OC)cc2sc(CC[C@H](C)C(=O)O)cc2c1F` [Example 116, (2S,2′S)-4,4′-(5,5′-(propane-1,3-diylbis(oxy))bis(4-fluoro-6-methoxybenzo[b]thiophene-5,2-diyl))bis(2-methylbutanoic acid)], the activation at 30 µM in assay [1] was determined as 8%. Further, the figures for the 50% effective concentration (EC50) in assay [2] and in assay [3] were 4240 nM and 623 nM, respectively.

As for `COc1cc2sc(C(=O)CCC(=O)O)cc2c(F)c1OCCCCCOc1c(OC)cc2sc(C(=O)CCC(=O)O)cc2c1F` [Example 117, 4,4′-(5,5′-(pentane-1,5-diylbis(oxy))bis(4-fluoro-6-methoxybenzo[b]thiophene-5,2-diyl))bis(4-oxobutanoic acid)], the activation at 30 µM in assay [1] was determined as 123%. The concentration for a half-maximal effect (EC50) is 2640 nM in assay [2] and 340 nM in assay [3].

For the compound `COc1cc2sc(C(=O)CCC(=O)O)cc2c(F)c1OCCCCCOc1c(OC)cc2sc(C(=O)C[C@H](C)C(=O)O)cc2c1F` [Example 118], the activation at 30 µM in assay [1] was found to be 117%. The half-maximal effective concentration (EC50) turned out to be 5000 nM in assay [2] and 60 nM in assay [3].

In the case of `COc1cc2sc(C(=O)C[C@H](C)C(=O)O)cc2c(F)c1OCCCCCOc1c(OC)cc2sc(C(=O)C[C@H](C)C(=O)O)cc2c1F` [Example 120, (2S,2′S)-4,4′-(5,5′-(pentane-1,5-diylbis(oxy))bis(4-fluoro-6-methoxybenzo[b]thiophene-5,2-diyl))bis(2-methyl-4-oxobutanoic acid)], the activation at 3 µM in assay [1] was determined as 45%. Moreover, the EC50 is 698 nM in assay [2] and 38 nM in assay [3].
